pIC50: −log10 of the molar value. Read-outs that look alike come from different tables or passages of the source. Blank lines part the entries; values can stand above or below the compound they belong to.
Columns and labels:
human TLR9 = target: T1, human TLR9 (Homo sapiens, UniProt Q9NR96); test: Inhibition of human TLR9 in human B cells (IL-6 ELISA); format: cell-based; conditions: for pIC50: human B cells, agonist 1018 ISS 1 μM, IL-6 readout, 48 hours, range about 0.01 to 10 μM, read-out: Human TLR9 IC50; for inhibits TLR9-dependent responses (in words): summary statement of the description
T1 construct: endogenous in cells; host or cells: primary human B cells (CD19 microbeads) from buffy coats of healthy donors
T1 sequence (Q9NR96 26-1032): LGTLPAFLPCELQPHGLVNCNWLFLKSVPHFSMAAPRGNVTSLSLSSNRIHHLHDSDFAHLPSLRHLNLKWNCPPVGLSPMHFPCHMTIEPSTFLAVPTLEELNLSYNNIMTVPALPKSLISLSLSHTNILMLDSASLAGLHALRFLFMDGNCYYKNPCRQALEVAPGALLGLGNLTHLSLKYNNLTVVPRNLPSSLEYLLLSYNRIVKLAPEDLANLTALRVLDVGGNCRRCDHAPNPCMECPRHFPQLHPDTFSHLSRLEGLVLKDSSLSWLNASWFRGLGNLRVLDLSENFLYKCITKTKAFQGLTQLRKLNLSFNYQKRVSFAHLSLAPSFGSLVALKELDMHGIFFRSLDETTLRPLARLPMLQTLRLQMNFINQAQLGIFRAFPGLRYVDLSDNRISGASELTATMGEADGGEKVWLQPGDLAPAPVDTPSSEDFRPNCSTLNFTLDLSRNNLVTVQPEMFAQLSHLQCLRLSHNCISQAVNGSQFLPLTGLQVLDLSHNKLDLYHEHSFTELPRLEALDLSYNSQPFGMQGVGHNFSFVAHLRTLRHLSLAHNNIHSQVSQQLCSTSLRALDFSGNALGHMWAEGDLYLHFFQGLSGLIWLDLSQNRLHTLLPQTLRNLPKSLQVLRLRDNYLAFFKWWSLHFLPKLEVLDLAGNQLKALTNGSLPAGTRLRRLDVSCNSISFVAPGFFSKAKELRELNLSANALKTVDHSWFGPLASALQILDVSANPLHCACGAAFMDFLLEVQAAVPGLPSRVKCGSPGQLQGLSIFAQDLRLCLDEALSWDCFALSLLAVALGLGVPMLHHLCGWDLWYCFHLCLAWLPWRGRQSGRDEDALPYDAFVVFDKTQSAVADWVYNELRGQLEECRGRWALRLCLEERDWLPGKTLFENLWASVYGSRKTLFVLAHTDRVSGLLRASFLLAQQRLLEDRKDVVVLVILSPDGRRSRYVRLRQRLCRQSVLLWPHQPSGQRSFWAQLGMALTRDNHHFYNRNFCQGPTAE
Description: Example B3—Inhibition of Human TLR9 in Human B Cells
When placed in cell culture, engagement of TLR9 with an agonist leads to expression and release of cytokines into the media.
Buffy coats from anonymized, healthy human donors. CD19 microbeads (Miltenyi Cat. No. 130-050-301). TLR9 agonist, 1018 ISS, CpG-containing DNA oligonucleotide. Human interleukin (IL)-6 ELISA kit (Mabtech Cat. No. 3460-1H-20).
Following isolation of […] from buffy coats, human B cells were plated into 96 well plates at approximately 300,000 cells per well. Test compounds were serially diluted and added to the plates. Test compounds were typically assayed using a concentration range from about 0.01 μM to about 10 μM. Certain test compounds were further assayed in an expanded dilution series using a compound concentration range from about 0.001 μM to about 30 μM. Immediately after adding test compounds, the TLR9 agonist (1018 ISS, CpG-containing DNA oligonucleotide) was added to a final concentration of 1 μM. Cells were incubated for 48 hours at 37° C. A portion of the media supernatant was analyzed for the presence of IL-6 using ELISA kits. The amount of IL-6 produced is a reflection of the amount of TLR9-dependent receptor activity. The IC50 values (the concentration at which 50% of the TLR9-dependent receptor activity is reduced) were calculated based upon the TLR9-dependent receptor activity over a range of different test compound concentrations.

human TLR8 = target: T2, human TLR8 (Homo sapiens, UniProt Q9NR97); test: Inhibition of human TLR8 in human monocytes (TNF-alpha / IL-1 beta ELISA); format: cell-based; conditions: for pIC50: human monocytes, agonist ORN8L 100 μg/mL, 24 hours; for inhibits TLR8-dependent responses (in words): summary statement of the description
T2 construct: endogenous in cells; host or cells: primary human monocytes (CD14 microbeads) from buffy coats of healthy donors
T2 sequence (Q9NR97 27-1041): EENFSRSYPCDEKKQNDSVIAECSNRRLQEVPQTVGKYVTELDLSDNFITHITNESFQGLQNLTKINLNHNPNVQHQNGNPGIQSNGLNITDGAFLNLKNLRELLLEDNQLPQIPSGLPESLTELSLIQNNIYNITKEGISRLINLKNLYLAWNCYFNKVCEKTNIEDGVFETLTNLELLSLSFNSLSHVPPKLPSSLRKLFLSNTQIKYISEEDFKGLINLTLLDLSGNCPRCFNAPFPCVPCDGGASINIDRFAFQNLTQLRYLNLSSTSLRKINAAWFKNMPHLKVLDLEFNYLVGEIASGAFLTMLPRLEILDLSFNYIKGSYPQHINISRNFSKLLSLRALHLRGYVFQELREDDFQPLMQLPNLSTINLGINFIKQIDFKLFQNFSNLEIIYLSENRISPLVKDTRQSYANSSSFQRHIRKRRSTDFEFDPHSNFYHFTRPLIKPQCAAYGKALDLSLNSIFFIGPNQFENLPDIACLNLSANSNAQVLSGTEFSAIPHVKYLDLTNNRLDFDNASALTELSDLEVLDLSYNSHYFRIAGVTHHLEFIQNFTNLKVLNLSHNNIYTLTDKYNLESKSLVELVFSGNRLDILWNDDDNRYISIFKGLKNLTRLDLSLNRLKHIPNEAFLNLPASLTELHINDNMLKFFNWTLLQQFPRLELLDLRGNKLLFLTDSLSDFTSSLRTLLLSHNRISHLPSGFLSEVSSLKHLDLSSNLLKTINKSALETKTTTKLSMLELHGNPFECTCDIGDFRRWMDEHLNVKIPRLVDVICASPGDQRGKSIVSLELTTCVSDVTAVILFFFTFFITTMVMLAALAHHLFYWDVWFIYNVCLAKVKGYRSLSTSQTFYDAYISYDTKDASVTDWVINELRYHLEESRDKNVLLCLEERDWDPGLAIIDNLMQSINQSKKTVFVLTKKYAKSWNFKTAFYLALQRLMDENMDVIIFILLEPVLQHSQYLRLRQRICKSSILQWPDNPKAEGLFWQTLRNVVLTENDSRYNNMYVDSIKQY
Text: Example B2—Inhibition of Human TLR8 in Human Monocytes
When placed in cell culture, engagement of TLR8 with an agonist leads to expression and release of cytokines into the media.
Buffy coats from anonymized, healthy human donors. CD14 microbeads (Milteny Cat. No. 130-050-201). TLR8 agonist, (5′-M2UGCUGCUUGUG-/glycerol/-GUGUUCGUCGUM2-5′ with M2=C6-linker, ORN8L, RNA oligonucleotide (Chem Genes Corp.). Human TNF-alpha ELISA kit (Mabtech Cat. No. 3510-1H-20). Human interleukin (IL)-1 beta ELISA kit (Mabtech Cat. No. 3415-1H-20).
Following isolation of monocytes from buffy coats, human monocytes were plated into 96 well plates at approximately 200,000 cells per well. Test compounds were serially diluted and added to the plates. Immediately after adding test compounds, the TLR8 agonist (ORN8L, RNA oligonucleotide) was added to a final concentration of 100 μg/mL. Cells were incubated for 24 hours at 37° C. A portion of the media supernatant was analyzed for the presence of TNF-alpha and/or IL-1 beta using ELISA kits. The amount of TNF-alpha or IL-1 beta produced is a reflection of the amount of TLR8-dependent receptor activity. The IC50 values (the concentration at which 50% of the TLR8-dependent receptor activity is reduced) were calculated based upon the TLR8-dependent receptor activity over a range of different test compound concentrations.

[1] = IL-1 beta readout, read-out: Human TLR8 IC50 IL-1b
[2] = TNF-alpha readout, read-out: Human TLR8 IC50 TNF-a

SMILES: CCCCN(CC)CCNC(=O)C1CCN(c2nnc(C)c3c(C)n(-c4ccccc4)nc23)CC1 [25x, N-(2-(butyl(ethyl)amino)ethyl)-1-(3,4-dimethyl-2-phenyl-2H-pyrazolo[3,4-d]pyridazin-7-yl)piperidine-4-carboxamide]
pIC50 (human TLR9): 7.39 | inhibits TLR9-dependent responses (in words) (human TLR9): inhibit | pIC50 (human TLR8; [1]): 5.34 | pIC50 (human TLR8; [2]): 5.31

SMILES: Cc1nnc(N2CCC(C(=O)NCCCN3CCN(C)CC3)CC2)c2nn(-c3ccccc3)c(C)c12 [31x, 1-(3,4-dimethyl-2-phenyl-2H-pyrazolo[3,4-d]pyridazin-7-yl)-N-(3-(4-methylpiperazin-1-yl)propyl)piperidine-4-carboxamide]
pIC50 (human TLR9): 6.68 | pIC50 (human TLR8; [1]): < 5.00 | pIC50 (human TLR8; [2]): < 5.00

SMILES: Cc1nnc(N2CCC(C(=O)NCCN3CCOCC3)CC2)c2nn(-c3ccccc3)c(C)c12 [32x, 1-(3,4-dimethyl-2-phenyl-2H-pyrazolo[3,4-d]pyridazin-7-yl)-N-(2-morpholinoethyl)piperidine-4-carboxamide]
pIC50 (human TLR9): 6.47 | pIC50 (human TLR8; [1]): < 5.00 | pIC50 (human TLR8; [2]): < 5.00

SMILES: CCN1CCCC1CNC(=O)C1CCN(c2nnc(C)c3c(C)n(-c4ccccc4)nc23)CC1 (stereo not shown) [33x, 1-(3,4-dimethyl-2-phenyl-2H-pyrazolo[3,4-d]pyridazin-7-yl)-N-((1-ethylpyrrolidin-2-yl)methyl)piperidine-4-carboxamide]
pIC50 (human TLR9): 7.15 | pIC50 (human TLR8; [1]): < 5.00 | pIC50 (human TLR8; [2]): < 5.00

SMILES: Cc1ccc(-n2nc3c(N4CCCC(C(=O)NCCN(C)C)C4)nnc(C)c3c2C)cc1 (stereo not shown) [45x, 1-(3,4-dimethyl-2-(p-tolyl)-2H-pyrazolo[3,4-d]pyridazin-7-yl)-N-(2-(dimethylamino)ethyl)piperidine-3-carboxamide]
pIC50 (human TLR9): 8.05 | pIC50 (human TLR8; [2]): ≤ 4.70

SMILES: Cc1nnc(N2CCCC(C(=O)NCCCN3CCOCC3)C2)c2nn(-c3ccccc3)c(C)c12 (stereo not shown) [49x, 1-(3,4-dimethyl-2-phenyl-2H-pyrazolo[3,4-d]pyridazin-7-yl)-N-(3-morpholinopropyl)piperidine-3-carboxamide]
pIC50 (human TLR9): 7.54 | pIC50 (human TLR8; [1]): 5.40 | pIC50 (human TLR8; [2]): 5.45

Second part, the compound after the results:

pIC50 (human TLR9): 8.22 | inhibits TLR9-dependent responses (in words) (human TLR9): inhibit | pIC50 (human TLR8; [1]): 6.48 | pIC50 (human TLR8; [2]): 6.64 | inhibits TLR8-dependent responses (in words) (human TLR8): inhibit
SMILES: CCN1CCN(C(=O)C2CCN(c3nnc(C)c4c(C)n(-c5ccc(C)cc5)nc34)CC2)CC1 [51x, (1-(3,4-dimethyl-2-(p-tolyl)-2H-pyrazolo[3,4-d]pyridazin-7-yl)piperidin-4-yl)(4-ethylpiperazin-1-yl)methanone]

pIC50 (human TLR9): 8.40 | inhibits TLR9-dependent responses (in words) (human TLR9): inhibit | pIC50 (human TLR8; [1]): 6.13 | pIC50 (human TLR8; [2]): 6.54 | inhibits TLR8-dependent responses (in words) (human TLR8): inhibit
SMILES: COc1ccc(-n2nc3c(N4CCCC(C(=O)NCCN(C)C)C4)nnc(C)c3c2C)cc1 (stereo not shown) [54x, N-(2-(dimethylamino)ethyl)-1-(2-(4-methoxyphenyl)-3,4-dimethyl-2H-pyrazolo[3,4-d]pyridazin-7-yl)piperidine-3-carboxamide]

pIC50 (human TLR9): 7.23 | pIC50 (human TLR8; [1]): 5.68 | pIC50 (human TLR8; [2]): 5.69
SMILES: Cc1nnc(N2CCC(C(=O)N3CCN(C)CC3)CC2)c2nn(-c3ccccc3)c(C)c12 [59x, (1-(3,4-dimethyl-2-phenyl-2H-pyrazolo[3,4-d]pyridazin-7-yl)piperidin-4-yl)(4-methylpiperazin-1-yl)methanone]

pIC50 (human TLR9): 7.74 | pIC50 (human TLR8; [1]): 6.00 | pIC50 (human TLR8; [2]): 5.95
SMILES: CCCN1CCN(C(=O)C2CCCN(c3nnc(C)c4c(C)n(-c5ccccc5)nc34)C2)CC1 (stereo not shown) [63x, (1-(3,4-dimethyl-2-phenyl-2H-pyrazolo[3,4-d]pyridazin-7-yl)piperidin-3-yl)(4-propylpiperazin-1-yl)methanone]

pIC50 (human TLR9): 7.89 | pIC50 (human TLR8; [1]): 6.18 | pIC50 (human TLR8; [2]): 6.05
SMILES: CCCN1CCN(C(=O)C2CCN(c3nnc(C)c4c(C)n(-c5ccccc5)nc34)CC2)CC1 [64x, (1-(3,4-dimethyl-2-phenyl-2H-pyrazolo[3,4-d]pyridazin-7-yl)piperidin-4-yl)(4-propylpiperazin-1-yl)methanone]

pIC50 (human TLR9): 6.44 | pIC50 (human TLR8; [1]): < 5.00 | pIC50 (human TLR8; [2]): < 5.00
SMILES: Cc1ccc(-n2nc3c(N4CCC(C(=O)NCC(C)(C)CN)CC4)nnc(C)c3c2C)cc1 [Compound No. 7, N-(3-amino-2,2-dimethylpropyl)-1-(3,4-dimethyl-2-(p-tolyl)-2H-pyrazolo[3,4-d]pyridazin-7-yl)piperidine-4-carboxamide]

pIC50 (human TLR9): 6.42 | pIC50 (human TLR8; [1]): < 5.00 | pIC50 (human TLR8; [2]): < 5.00
SMILES: Cc1ccc(-n2nc3c(N4CCC(C(=O)NCCCN5CCC5)CC4)nnc(C)c3c2C)cc1 [Compound No. 11, N-(3-(azetidin-1-yl)propyl)-1-(3,4-dimethyl-2-(p-tolyl)-2H-pyrazolo[3,4-d]pyridazin-7-yl)piperidine-4-carboxamide]
